Seven molecules from ChEMBL document CHEMBL3137667, “[Drug-induced liver injury; fourteenth updated edition of the bibliographic database of liver injuries and related drugs]” (Gastroenterol Clin Biol, 2004) can be followed below.

For data set [1] the following is noted: human.
For data set [2] the following is noted: human. The source holds these as a separate data set.
The conditions of data set [3]: human. This is another data set of the same source.
For data set [4] the following is noted: human. This is another data set of the same source.
The conditions of data set [5]: human. This is another data set of the same source.
For data set [6] the following is noted: human, serum.
For data set [7] the following is noted: human, serum. The source holds these as a separate data set.
A short description of data set [8]: Highest frequency of moderate liver toxicity observed during clinical trials, expressed as a percentage. [column '% BIOL' in source]. The following applies: human.
Data set [9] in a line: Highest frequency of acute liver toxicity observed during clinical trials, expressed as a percentage. [column '% AIGUE' in source]. As to conditions: human.
The conditions of data set [10]: human, serum, 4383 h.
The conditions of data set [11]: human. The source holds these as a separate data set.
Data set [12] can be described thus: Presence of at least one case with successful reintroduction. [column 'REINT' in source]. The following applies: human.
For data set [13] the following is noted: human. This is another data set of the same source.
The nature of data set [14]: Times to onset, minimal and maximal, observed in the indexed observations. [column 'DELAI' in source]. As to conditions: human.
For data set [15] the following is noted: human. This is another data set of the same source.
For data set [16] the following is noted: human. The source holds these as a separate data set.
Data set [17] is described as follows: Proposed mechanism(s) of liver damage. [column 'MEC' in source]. The following applies: human.
Data set [18] is described as follows: Comments (NB not yet translated). [column 'COMMENTAIRES' in source]. As to conditions: human.
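Wherever Hepatotoxicity (association with vascular disease) is given: count of indexed literature references reporting vascular liver injury in humans, e.g. peliosis hepatitis, hepatic veno-occlusive disease or Budd-Chiari syndrome.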
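Wherever Hepatotoxicity (benign tumour) is given: value is a count of indexed literature references citing a benign tumour confirmed by histopathology.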
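Wherever Hepatotoxicity (choleostasis) is given: human cholestatic liver injury, shown by histopathology or by peak ALT or AST elevation over alkaline phosphatase ratio below 2, value counts indexed literature reports.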
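Wherever Hepatotoxicity (chronic liver disease) is given: chronic liver injury confirmed by histopathology or persistently raised serum aminotransferase activity beyond 6 months, value given as the count of indexed literature references.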
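Wherever Hepatotoxicity (cirrhosis) is given: value is a count of indexed literature references reporting cirrhosis confirmed by histopathology.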
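Wherever Hepatotoxicity (cytolytic) is given: human cytolytic liver injury, shown by histopathology or by a ratio above 5 of peak ALT or AST elevation to alkaline phosphatase elevation, value counts indexed references.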
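Wherever Hepatotoxicity (granulomatous hepatitis) is given: value is a count of indexed literature references reporting granulomatous liver disease confirmed by histopathology.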
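Wherever Hepatotoxicity (malignant tumour) is given: malignant tumour confirmed by histopathology, value gives the count of indexed literature references reporting it.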
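Wherever Hepatotoxicity (severe hepatitis) is given: human clinical data: severe hepatitis, meaning potentially life-threatening liver failure or clinically observed cases, the value counts how many indexed literature references report it.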
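Wherever Hepatotoxicity (steatosis) is given: steatosis confirmed by histopathology, value is the count of indexed references.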

Consider `Nc1ccc(S(=O)(=O)c2ccc(N)cc2)cc1` [DAPSONE], for which the “Hepatotoxicity (malignant tumour)” value in data set [1] is given as 0. In [2], the “Hepatotoxicity (cirrhosis)” value is on record as 0. Besides, in data set [3] (Liver), the “Hepatotoxicity (choleostasis)” value amounted to 13. Besides, the “Hepatotoxicity (granulomatous hepatitis)” value in [4] (Liver) stood at 3. Besides, the “Hepatotoxicity (steatosis)” value in [5] is on record as 0. Besides, the “Hepatotoxicity (acute)” value in data set [6] is 33; in [9] (Liver), 5%. Moreover, the entries for the “Hepatotoxicity (moderate)” value in data set [7] and in data set [8] (Liver) were 10 and 20%, respectively. The “Hepatotoxicity (chronic liver disease)” value in [10] came to 0. The “Hepatotoxicity (cytolytic)” value in data set [11] (Liver) amounted to 15. Moreover, the “Hepatotoxicity (successful reintroduction)” value in [12] is “yes”. Also, the “Hepatotoxicity (severe hepatitis)” value in [13] (Liver) stood at 6. In addition, in [14], the “Hepatotoxicity (time to onset)” value worked out at 1 week - 1.5 years. For the same molecule, the “Hepatotoxicity (benign tumour)” value in data set [15] amounted to 0. Moreover, the “Hepatotoxicity (association with vascular disease)” value in [16] is 0. For the same molecule, in data set [17] (Liver), the “Hepatotoxicity (mechanism)” value is given as “Allergic, Dose-dependant”. Also, the “Hepatotoxicity (comment)” value in data set [18] was “DUCTOPENIE”.

For the molecule `O=c1[nH]cnc2c1ncn2[C@H]1CC[C@@H](CO)O1` [DIDANOSINE], the “Hepatotoxicity (malignant tumour)” value in [1] was determined as 0. For the same molecule, the “Hepatotoxicity (cirrhosis)” value in data set [2] is recorded as 1. Moreover, in data set [3], the “Hepatotoxicity (choleostasis)” value is 6. Also, in data set [4], the “Hepatotoxicity (granulomatous hepatitis)” value was 0. In data set [5], the “Hepatotoxicity (steatosis)” value is 20. Moreover, the “Hepatotoxicity (acute)” value is 27 in [6] and 12.5% in data set [9]. The “Hepatotoxicity (moderate)” value in data set [7] was 18; in data set [8], 38.1%. Moreover, the “Hepatotoxicity (chronic liver disease)” value in data set [10] was 1. Besides, in data set [11], the “Hepatotoxicity (cytolytic)” value stood at 21. Besides, in [12], the “Hepatotoxicity (successful reintroduction)” value was “yes”. Moreover, in data set [13], the “Hepatotoxicity (severe hepatitis)” value is 13. For the same molecule, in data set [14], the “Hepatotoxicity (time to onset)” value is recorded as 5 days - 8 years. Besides, the “Hepatotoxicity (benign tumour)” value in data set [15] came out at 0. Besides, in data set [16], the “Hepatotoxicity (association with vascular disease)” value came out at 0. Besides, the “Hepatotoxicity (mechanism)” value in [17] is “Dose-dependant, Mitochondrial toxicity”. For the same molecule, the “Hepatotoxicity (comment)” value in [18] was “REACTIVATION_HVB/HVC I/PARACETAMOL”.

Take `O=C1NC(=O)C(c2ccccc2)(c2ccccc2)N1` [PHENYTOIN]: the “Hepatotoxicity (malignant tumour)” value in data set [1] came to 0. The “Hepatotoxicity (cirrhosis)” value in data set [2] was 0. For the same molecule, the “Hepatotoxicity (choleostasis)” value in [3] (Liver) is listed as 30. Also, in data set [4] (Liver), the “Hepatotoxicity (granulomatous hepatitis)” value was found to be 5. For the same molecule, the “Hepatotoxicity (steatosis)” value in data set [5] is on record as 4. Also, the entries for the “Hepatotoxicity (acute)” value in [6] and in data set [9] (Liver) were 84 and 2%, respectively. The “Hepatotoxicity (moderate)” value is reported as 29 in [7] and 90% in data set [8] (Liver). For the same molecule, the “Hepatotoxicity (chronic liver disease)” value in [10] was found to be 6. In addition, the “Hepatotoxicity (cytolytic)” value in [11] (Liver) turned out to be 53. In [12], the “Hepatotoxicity (successful reintroduction)” value was “yes”. Moreover, in data set [13] (Liver), the “Hepatotoxicity (severe hepatitis)” value turned out to be 14. In data set [14], the “Hepatotoxicity (time to onset)” value is reported as 1 day - 11 years. For the same molecule, the “Hepatotoxicity (benign tumour)” value in data set [15] was 0. In addition, the “Hepatotoxicity (association with vascular disease)” value in data set [16] came out at 0. Further, the “Hepatotoxicity (mechanism)” value in data set [17] (Liver) is “Allergic, Reactive metabolite”. Besides, in data set [18], the “Hepatotoxicity (comment)” value was “#MNI CHOLESTASE_PROLONGEE DUCTOPENIE #CBP”.

`CC1(C)S[C@@H]2[C@H](NC(=O)C(C(=O)O)c3ccccc3)C(=O)N2[C@H]1C(=O)O` (stereo partly specified) [CARBENICILLIN]: the “Hepatotoxicity (malignant tumour)” value in data set [1] is 0. Further, the “Hepatotoxicity (cirrhosis)” value in data set [2] was determined as 0. The “Hepatotoxicity (choleostasis)” value in data set [3] is given as 0. Further, the “Hepatotoxicity (granulomatous hepatitis)” value in data set [4] stood at 0. For the same molecule, in data set [5], the “Hepatotoxicity (steatosis)” value is recorded as 0. The entries for the “Hepatotoxicity (acute)” value in [6] and in data set [9] were 5 and 0.7%, respectively. The “Hepatotoxicity (moderate)” value came out at 13 in data set [7] and 56% in [8]. Also, the “Hepatotoxicity (chronic liver disease)” value in data set [10] is reported as 0. Moreover, the “Hepatotoxicity (cytolytic)” value in data set [11] turned out to be 5. Further, in [12], the “Hepatotoxicity (successful reintroduction)” value is “yes”. Besides, in data set [13], the “Hepatotoxicity (severe hepatitis)” value worked out at 0. Besides, in data set [14], the “Hepatotoxicity (time to onset)” value amounted to 4 days - 3 months. Besides, in [15], the “Hepatotoxicity (benign tumour)” value is reported as 0. Besides, the “Hepatotoxicity (association with vascular disease)” value in data set [16] was found to be 0. In data set [17], the “Hepatotoxicity (mechanism)” value is recorded as “Dose-dependant”. Besides, the “Hepatotoxicity (comment)” value in data set [18] is reported as “RC/TICARCILLINE”.

Turning to `CCCNCC(O)COc1ccccc1C(=O)CCc1ccccc1` (stereo unspecified) [PROPAFENONE], the “Hepatotoxicity (malignant tumour)” value in data set [1] is 0. Also, the “Hepatotoxicity (cirrhosis)” value in data set [2] is on record as 0. The “Hepatotoxicity (choleostasis)” value in data set [3] stood at 6. Further, in data set [4], the “Hepatotoxicity (granulomatous hepatitis)” value was 0. In addition, in [5], the “Hepatotoxicity (steatosis)” value worked out at 0. The “Hepatotoxicity (acute)” value in [6] is on record as 9; in [9], 7.7%. Also, the “Hepatotoxicity (moderate)” value in data set [7] is reported as 7; in data set [8] it was 10.6%. Besides, the “Hepatotoxicity (chronic liver disease)” value in data set [10] is given as 0. Besides, the “Hepatotoxicity (cytolytic)” value in data set [11] was found to be 1. Moreover, the “Hepatotoxicity (successful reintroduction)” value in [12] is “yes”. The “Hepatotoxicity (severe hepatitis)” value in [13] came out at 0. Also, the “Hepatotoxicity (time to onset)” value in data set [14] turned out to be 6 days - 16 months. For the same molecule, in [15], the “Hepatotoxicity (benign tumour)” value is 0. Also, the “Hepatotoxicity (association with vascular disease)” value in [16] was determined as 0. Besides, the “Hepatotoxicity (mechanism)” value in data set [17] is recorded as “Allergic”. For the same molecule, in data set [18], the “Hepatotoxicity (comment)” value was “CHOLANGITE PRICHOLANGITE AC_ANTI-N”.

For the molecule `CCC[N+]12[C@H](O)[C@@H](CC)[C@@H]3C[C@H]1[C@@H]1N(C)c4ccccc4[C@]14C[C@H]2C3[C@H]4O` (stereo partly specified), the “Hepatotoxicity (malignant tumour)” value in data set [1] worked out at 0. Also, the “Hepatotoxicity (cirrhosis)” value in [2] turned out to be 0. For the same molecule, the “Hepatotoxicity (choleostasis)” value in [3] is listed as 14. Also, the “Hepatotoxicity (granulomatous hepatitis)” value in [4] was found to be 2. The “Hepatotoxicity (steatosis)” value in data set [5] turned out to be 0. Further, the “Hepatotoxicity (acute)” value in data set [6] was found to be 15; in data set [9], 0%. Also, the “Hepatotoxicity (moderate)” value is reported as 0 in [7] and 0% in data set [8]. In addition, the “Hepatotoxicity (chronic liver disease)” value in data set [10] came out at 2. Moreover, the “Hepatotoxicity (cytolytic)” value in data set [11] is on record as 3. The “Hepatotoxicity (successful reintroduction)” value in data set [12] was “yes”. Besides, the “Hepatotoxicity (severe hepatitis)” value in data set [13] was 0. Also, in data set [14], the “Hepatotoxicity (time to onset)” value is 3 days - 4 months. In addition, the “Hepatotoxicity (benign tumour)” value in data set [15] is given as 0. Moreover, in data set [16], the “Hepatotoxicity (association with vascular disease)” value is on record as 0. The “Hepatotoxicity (mechanism)” value in data set [17] was “Allergic”. Further, the “Hepatotoxicity (comment)” value in [18] is on record as “RC/QUINIDINE CHOLESTASE_PROLONGEE CHOLANGITE”.

With `CCCCOCC(CN1C(=O)N(CC(COCCCC)OC(N)=O)C(=O)C(CC)(c2ccccc2)C1=O)OC(N)=O` (stereo unspecified) [DIFEBARBAMATE], the “Hepatotoxicity (malignant tumour)” value in [1] was 0. For the same molecule, in [2], the “Hepatotoxicity (cirrhosis)” value amounted to 0. Also, the “Hepatotoxicity (choleostasis)” value in data set [3] worked out at 1. Moreover, the “Hepatotoxicity (granulomatous hepatitis)” value in data set [4] was 1. Further, in [5], the “Hepatotoxicity (steatosis)” value came to 1. For the same molecule, the “Hepatotoxicity (acute)” value in [6] came out at 9; in [9], 0%. Moreover, the “Hepatotoxicity (moderate)” value amounted to 2 in data set [7] and 0% in data set [8]. Further, the “Hepatotoxicity (chronic liver disease)” value in data set [10] is listed as 0. Besides, in data set [11], the “Hepatotoxicity (cytolytic)” value is 9. Also, the “Hepatotoxicity (successful reintroduction)” value in data set [12] is listed as “yes”. Also, in data set [13], the “Hepatotoxicity (severe hepatitis)” value worked out at 5. Also, in [14], the “Hepatotoxicity (time to onset)” value is recorded as 8 days - 15 months. In addition, the “Hepatotoxicity (benign tumour)” value in data set [15] is 0. For the same molecule, the “Hepatotoxicity (association with vascular disease)” value in data set [16] worked out at 0. Besides, the “Hepatotoxicity (mechanism)” value in data set [17] was “Allergic”. For the same molecule, in data set [18], the “Hepatotoxicity (comment)” value is “AC_ANTI-N/-ML I/PAROXETINE”.
